Source: patent US20040180417A1, “Secretase/sheddase with asp-ase activity on the beta-site app-cleaving enzyme (bace, asp2, memepsin2)” (priority 2000, published 2004)
Starred links: 1 amine or outer side, 2 acyl side, 3 side chain; linkers in the order of their positions; H or OH if unused. Non-standard residues stand in square brackets, D forms with d. Residues, ends and D or L forms follow the SMILES beside them. *: point of attachment. X1 = CC(N[*:1])C(=O)C(F)(F)C(=O)[*:2]; Cbz = O=C(OCc1ccccc1)*; Boc = CC(C)(C)OC(=O)*; CH2F = FC*

Legend:
BACE secretase/sheddase = BACE secretase/sheddase activity (BACE C-terminal fragments) in Neuro 2a cells; format: cell-based
Method: (§1) FIG. 8: [A] Neuro 2a APPSW cells were transiently transfected with cDNA for [BACEF]FG. Cells were labeled with ^35S-Met for 3 hrs in the absence (−, DMSO control) or presence of 100 uM of a substrate based γ-secretase inhibitor (+γ-sec I, DFK-167 Enzyme Systems products). Cell lysates were immunoprecipitaed with FG antibodies, reduced and analyzed by SDS-PAGE on 8% tricine gels. Cell lysates [B] and media [C] were immunoprecipited with antibody APP711-03 and analyzed by SDS-PAGE on 8% tricine gels. [D] Media was immunoprecipited with the 1-40 Aβ antibody and analyzed on a 14% tricine gel. The exposure time was 3 days.
Transfections and biosynthetic analyses—All transfections were done on 2−4×10^5 HK293 cells using Effectene (Qiagen) and a total of 1-1.5 μg of BACE contruct cDNAs subcloned into the vector pIRES2-EGFP. Two days post-transfection the cells were washed and then pulse-incubated for various times with either 200 μCi/ml of [^35S]Met; 400 μCi/ml Na2[^35SO4], [^3H]Leu, [^3H]Arg, [^3H]Ser; or 1 mCi/ml [^3H]palmitate EN) (20). Pulse-chase experiments with [^35S]Met were carried out as previously described (21). Cells were lysed in immunoprecipitation buffer [150 mM NaCl, 50 mM Tris-HCl pH 6.8, 0.5% NP40, 0.5% sodium deoxycholate and a protease inhibitor cocktail (Roche Diagnostics). The lysates and media were then prepared for immunoprecipitations as reported (22). The monoclonal antibodies used were directed against either the FL (Flag-M2; 1:500 dilution; Stratagene) or V5 (1:1000 dilution; Invitrogen) epitopes. Rabbit polyclonal antisera included those directed against aa 1-16 of human Aβ (produced in laboratory, dilution 1:200); anti-β-amyloid, recognizing mostly the C-terminal part of Aβ40 (A8326, dilution 1:200, Sigma); and FCA 18, recognizing all peptides starting with the Asp at the N-terminus of Aβ (23). Immunoprecipitates were resolved on SDS-PAGE (either 8% or 14% tricine gels) and autoradiographed (21). All PC inhibitor proteins were cloned in pcDNA3 (Invitrogen), including those of α1-PDX (8); the preprosegments of furin, PC7 (24), PC5 (25), SKI-1 (26,27); and wild type (α2-M) and furin-site mutated (α2-MG-F) α2-macroglubulin (28).
C-terminal processing of BACE—In order to further characterize the nature of apparent C-terminal cleaved BACE fragments (FIG. 5C), the analysis of [BACEF]FG fragments immunoprecipitated with antiserum to Flag from HK293 cells were repeated. In addition to the 6 kDa fragment noted in FIG. 5C, fragments of 34, 15, and 11 kDa are apparent (FIG. 7). […] In addition, the intensity of the 11 and 6 kDa bands appear to diminish. It was expected that some of these BACE fragments would be disulfide linked, since it is known that the six Cys residues in the ectodomain form three intramolecular disulfide linkages (Cys^216-Cys^420, Cys^278-Cys^443, Cys^330-Cys^380) (41). The 34, 15, 11 and 6 kDa BACE fragments are also apparent when [BACEF]FG is expressed in Neuro 2a cells (FIG. 8). The relative levels of the 11 kDa fragment compared to the other cleaved fragments of BACE appear lower in Neuro 2a compared to HK293 cells. In any case, the sites of ectodomain cleavage are apparently the same in the two cell types. […] The significance of an apparent reduction in the level of the 6 kDa BACE fragment is unknown.

[proBACES]FG/V5 = In vitro PC-mediated processing of proBACES (Western blot); format: biochemical, mouse; details: equivalent hydrolytic activities of PCs, 1-4 hours incubation
BACE = target: T1, BACE (Mus musculus, UniProt P56818); experiment: In vitro β-secretase activity on a 20 aa synthetic βAPPSW peptide (RP-HPLC); format: biochemical
T1 construct: TDEST454; FLAG (DYKDDDDK), inserted just after the signal peptide cleavage site (after Ala19) (N); made in house; host or cells: HK293 cells, transiently transfected; 10-20 fold-concentrated medium
T1 sequence (P56818 46-457 limits assumed): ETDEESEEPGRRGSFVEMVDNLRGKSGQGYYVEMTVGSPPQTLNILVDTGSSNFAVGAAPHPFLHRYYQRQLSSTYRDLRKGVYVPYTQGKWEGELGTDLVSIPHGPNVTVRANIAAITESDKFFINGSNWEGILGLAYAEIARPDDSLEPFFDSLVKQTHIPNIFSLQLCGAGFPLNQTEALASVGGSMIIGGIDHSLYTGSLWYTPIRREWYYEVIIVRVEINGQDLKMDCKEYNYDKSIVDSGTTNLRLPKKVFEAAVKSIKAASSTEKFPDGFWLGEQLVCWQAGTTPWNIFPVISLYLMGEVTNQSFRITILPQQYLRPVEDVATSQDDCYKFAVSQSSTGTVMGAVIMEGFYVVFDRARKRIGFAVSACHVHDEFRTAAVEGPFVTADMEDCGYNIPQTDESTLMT

proBACE = experiment: Exit of proBACE from the ER in HK293 cells (3h [35S]Met pulse); format: cell-based, human; details: 90 μM BFA or 250 nM bafilomycin, 37° C.
Method: FIG. 5: HK293 cells were transiently transfected with cDNAs coding for either [A,B] (BDNF+βAPPSW) [CTL] or ([BACEF]FG+βAPPSW), [C] [BACEF]FG or [BACES]FG. The cells were pulse-labeled for 3h with [^35S]Met at either 37° C. in the absence or presence of 90 μM BFA or 250 nM bafilomycin or at 20° C. Cell lysates were immunoprecipitated with either [A] the FG mAb or [B] the 1-16 Aβ antibody, and analysed by SDS-PAGE on 8% tricine gels. [C] FG antibody, and analysed by SDS-PAGE on 8% tricine gels. The arrowhead point to an ˜6 kDa intracellular stub of BACEF.
Transfections and biosynthetic analyses—All transfections were done on 2−4×10^5 HK293 cells using Effectene (Qiagen) and a total of 1-1.5 μg of BACE contruct cDNAs subcloned into the vector pIRES2-EGFP. Two days post-transfection the cells were washed and then pulse-incubated for various times with either 200 μCi/ml of [^35S]Met; 400 μCi/ml Na2[^35SO4], [^3H]Leu, [^3H]Arg, [^3H]Ser; or 1 mCi/ml [^3H]palmitate EN) (20). Pulse-chase experiments with [^35S]Met were carried out as previously described (21). Cells were lysed in immunoprecipitation buffer [150 mM NaCl, 50 mM Tris-HCl pH 6.8, 0.5% NP40, 0.5% sodium deoxycholate and a protease inhibitor cocktail (Roche Diagnostics). The lysates and media were then prepared for immunoprecipitations as reported (22). […]

γ-secretase = experiment: βAPP processing (Aβ, C99) in Neuro 2a APPSW cells; format: cell-based; details: 100 uM inhibitor, 3 hrs
Method: as §1
C-terminal processing of BACE—In order to further characterize the nature of apparent C-terminal cleaved BACE fragments (FIG. 5C), the analysis of [BACEF]FG fragments immunoprecipitated with antiserum to Flag from HK293 cells were repeated. In addition to the 6 kDa fragment noted in FIG. 5C, fragments of 34, 15, and 11 kDa are apparent (FIG. 7). […] In addition, the intensity of the 11 and 6 kDa bands appear to diminish. It was expected that some of these BACE fragments would be disulfide linked, since it is known that the six Cys residues in the ectodomain form three intramolecular disulfide linkages (Cys^216-Cys^420, Cys^278-Cys^443, Cys^330-Cys^380) (41). The 34, 15, 11 and 6 kDa BACE fragments are also apparent when [BACEF]FG is expressed in Neuro 2a cells (FIG. 8). […]

[1] = tested on: proBACE processing by PC-like enzyme; experiment: proBACE processing in HK293 cells co-expressing [BACEF]FG/V5 and PC-inhibitors (pulse-chase, immunoprecipitation, SDS-PAGE); format: cell-based, human; details: 15 min [35S]Met pulse, chase 1 h or 2h; FG epitope; α1-PDX co-transfected or BFA present
Method: FIG. 1: HK293 cells were transiently co-transfected with either ([BACEF]FG/V5+BDNF) [control, CTL] (A,C) or ([BACEF]FG/V5+α1-PDX) (B,D) cDNAs. Two days post-transfections the cells were pulse-labeled in the absence or presence of […] BFA for 15 min with [^35S]Met and then chased for 1 or 2h. Cell lysates were immunoprecipitated with either the FG or V5 mAbs and analysed by SDS-PAGE on 8% tricine gels. The migration position of the 53 kDa molecular mass standard and those of proBACE (pBACE) and BACE are emphasized.
FIG. 2: [A] HK293 cells were transiently co-transfected with cDNAs coding for either ([BACEF]FG/V5+BDNF) [control, CTL], ([BACEF-R45A]FG/V5+BDNF) or ([BACEF-R42A]FG/V5+BDNF) or ([BACEF]FG/V5+either α1-PDX, the prosegments of furin, PC5, PC7, SKI-1, furin-mutated (α2M-F) or wild type (α2M) α2-macroglobulin. The cells were pulse-labeled for 20 min with [^35S]Met and then chased for 90 min. Cell lysates were immunoprecipitated with the FG mAb and analysed by SDS-PAGE on 8% tricine gels. [B] HK293 cells were transiently co-transfected with cDNAs coding for either ([BACEF]FG/V5+BDNF) [CTL], ([BACEF]FG/V5+furin) or ([BACEF]FG/V5+α1-PDX). The cells were then pulse-labeled for 2h with Na2[^35SO4]. Cell lysates were immunoprecipitated with the FG or V5 mAbs and analysed by SDS-PAGE on 8% tricine gels. […]

Compound: CC(C)C[C@H](CC(=O)NO)C(=O)N[C@@H](Cc1ccc2ccccc2c1)C(=O)N[C@@H](C)C(=O)NCCN [TAPI-1]
- inhibition of BACE secretase/sheddase activity (BACE secretase/sheddase; Neuro 2a cells): did not inhibit

Compound: furin
- time to completely process proBACE into BACE ([proBACES]FG/V5): ≤ 2 h
- increase in the level of BACE activity (BACE; pre-incubation of BACES-containing media with furin, four separate experiments): 50±3%

Compound: CO/C1=C\C(C)=C\[C@@H](C)[C@@H](O)[C@@H](C)C/C(C)=C/C=C/[C@H](OC)[C@@H]([C@@H](C)[C@@H](O)[C@H](C)[C@@]2(O)C[C@@H](O)[C@H](C)[C@@H](C(C)C)O2)OC1=O [bafilomycin]
- escape of 66 kDa proBACE from the ER (proBACE): retarding effect

Compound: COC(=O)C[C@H](NC(=O)[C@H](C)NC(=O)[C@@H](NC(=O)OCc1ccccc1)C(C)C)C(=O)CF [Z-Val-Ala-Asp(OMe)-CH2F] (Cbz-Val-Ala-Asp(OMe)-CH2F)
- effect on BACE secretase/sheddase activity (BACE secretase/sheddase; Neuro 2a cells, 100 uM): had no effect

Compound: CCC(C)C(NC(=O)C(NC(=O)OC(C)(C)C)C(C)C)C(=O)NC(C)C(=O)C(F)(F)C(=O)NC(C(=O)NC(C(=O)OC)C(C)CC)C(C)C (stereo not shown) (Boc-VI[X1]VI-OMe; configuration not given here)
- cellular C99 levels (γ-secretase; cell lysates): elevates
- Aβ formation (γ-secretase; media): completely inhibits
- levels of BACE fragments (34, 15 and 11 kDa) (BACE secretase/sheddase; Neuro 2a APPSW cells transfected with [BACEF]FG, 100 uM inhibitor, 3 hrs): largely unchanged
- inhibition of BACE secretase/sheddase activity (BACE secretase/sheddase; Neuro 2a cells): does not inhibit

Compound: C[C@H]1CCC/C=C/[C@@H]2C[C@H](O)C[C@H]2[C@H](O)/C=C/C(=O)O1 [BFA, brefeldin A]
- escape of 66 kDa proBACE from the ER (proBACE): prevented
- 72 kDa proBACE form [1]: not apparent

Compound: CNC(=O)[C@H](Cc1c[nH]c2ccccc12)NC(=O)[C@@H](CC(=O)NO)CC(C)C [GM6001]
- inhibition of BACE secretase/sheddase activity (BACE secretase/sheddase; Neuro 2a cells): did not inhibit

Compound: THLGIRLPLRSGLAGPPLGLRLPR [proBACE 22-45]
- inhibition of the Swedish peptide substrate cleavage (BACE; 20 μM peptide pre-incubated with active BACE, substrate at 10 μM): 20%
